# In patent US7723332B2, “Aryl sulfonamides useful for modulation of the progesterone receptor” (Wyeth LLC, priority 2007, dated 2010):
# System: alkaline phosphatase activity in T47D cells
# Experiment: Effects of progestins and antiprogestins on alkaline phosphatase activity in T47D cells
# Format: cell-based
# Conditions: Homo sapiens; T47D alkaline phosphatase assay; antagonist mode in the presence of 1 nM progesterone; 24 hours
# Procedure: Effects of Progestins and Antiprogestins on Alkaline Phosphatase Activity in T47D Cells
# This example was performed to identify progestins or antiprogestins by determining a compound's effect on alkaline phosphatase activity in T47D cells.
# Culture medium: DMEM:F12 (1:1) (GIBCO, BRL) supplemented with 5% (v/v) charcoal stripped fetal bovine serum (not heat-inactivated), 100 U/mL penicillin, 100 μg/mL streptomycin, and 2 mM the GlutaMax™ reagent (GIBCO, BRL).
# Alkaline phosphatase assay buffer: • I. 0.1M Tris-HCl, pH 9.8, containing 0.2% the Triton® X-100 reagent • II. 0.1 M Tris-HCl, pH 9.8, containing 4 mM p-nitrophenyl phosphate (Sigma).
# Frozen T47D cells were thawed in a 37° C. water bath and diluted to 280,000 cells/mL in culture medium. To each well in a 96-well plate (Falcon, Becton Dickinson Labware), 180 μL of diluted cell suspension was added. Twenty μL of reference or test compounds diluted in the culture medium was then added to each well. When testing for progestin antagonist activity, reference antiprogestins or test compounds were added in the presence of 1 nM progesterone. The cells were incubated at 37° C. in a 5% CO2/humidified atmosphere for 24 hours. NOTE: For high throughput screening, one concentration of each compound was tested at 0.3 μg/mL. Based on an average molecular weight of 300 g/mol for the compounds in the library, the concentration was approximately 1 μM. Subsequently, active compounds were tested in dose response assays to determine EC50 and IC50.
# At the end of treatment, the medium was removed from the plate. Fifty μL of assay buffer I was added to each well. The plates were shaken in a titer plate shaker for 15 minutes. 150 μL of assay buffer II was then added to each well. Optical density measurements were taken at 5 minute intervals for 30 minutes at a test wavelength of 405 nm.
# For reference and test compounds, a dose response curve was generated for dose (X-axis) vs. the rate of enzyme reaction (slope) (Y-axis). Square root-transformed data was used for analysis of variance and nonlinear dose response curve fitting for both agonist and antagonist modes. Huber weighting was used to down-weight the effects of outliners. EC50 or IC50 values were calculated from the retransformed values. JMP software (SAS Institute, Inc.) was used for both one-way analysis of variance and non-4 linear dose response analysis in both single dose and dose response studies.
# Progesterone and trimegestone are reference progestins known in the art and typically show an EC50 of about 0.1 nM to about 2.0 nM.
row,IC50,SMILES
1,18.1 nM,"Cn1c(C#N)ccc1-c1ccc(S(=O)(=O)NC2CCC2)cc1F [Example 40, 4-(5-cyano-1-methyl-1H-pyrrol-2-yl)-N-cyclobutyl-3-fluorobenzenesulfonamide]"
2,62.2 nM,"CCN(CC)S(=O)(=O)c1ccc(-c2ccc(C#N)n2C)cc1F [Example 41, 4-(5-cyano-1-methyl-1H-pyrrol-2-yl)-N,N-diethyl-2-fluorobenzenesulfonamide]"
3,48.1 nM,"CC(C)NS(=O)(=O)c1ccc(-c2ccc(C#N)n2C)cc1F [Example 42, 4-(5-cyano-1-methyl-1H-pyrrol-2-yl)-2-fluoro-N-isopropylbenzenesulfonamide]"
4,45.6 nM,"Cn1c(C#N)ccc1-c1ccc(S(=O)(=O)NCC2CC2)c(F)c1 [Example 44, 4-(5-cyano-1-methyl-1H-pyrrol-2-yl)-N-(cyclopropylmethyl)-2-fluorobenzenesulfonamide]"
5,99.4 nM,"Cn1c(C#N)ccc1-c1ccc(S(=O)(=O)NC2CCC2)c(F)c1 [Example 45, 4-(5-cyano-1-methyl-1H-pyrrol-2-yl)-N-cyclobutyl-2-fluorobenzenesulfonamide]"
6,75.8 nM,"Cn1c(C#N)ccc1-c1ccc(S(N)(=O)=O)c(OC(F)(F)F)c1 [Example 46, 4-(5-cyano-1-methyl-1H-pyrrol-2-yl)-2-(trifluoromethoxy)benzenesulfonamide]"
7,62.7 nM,"CN(C)S(=O)(=O)c1ccc(-c2ccc(C#N)n2C)cc1OC(F)(F)F [Example 48, 4-(5-cyano-1-methyl-1H-pyrrol-2-yl)-N,N-dimethyl-2-(trifluoromethoxy)benzenesulfonamide]"
8,122 nM,"CCNS(=O)(=O)c1ccc(-c2ccc(C#N)n2C)cc1OC(F)(F)F [Example 49, 4-(5-cyano-1-methyl-1H-pyrrol-2-yl)-N-ethyl-2-(trifluoromethoxy)benzenesulfonamide]"
9,101 nM,"CCN(CC)S(=O)(=O)c1ccc(-c2ccc(C#N)n2C)cc1OC(F)(F)F [Example 50, 4-(5-cyano-1-methyl-1H-pyrrol-2-yl)-N,N-diethyl-2-(trifluoromethoxy)benzenesulfonamide]"
10,32.5 nM,"CC(C)NS(=O)(=O)c1ccc(-c2ccc(C#N)n2C)cc1OC(F)(F)F [Example 51, 4-(5-cyano-1-methyl-1H-pyrrol-2-yl)-N-isopropyl-2-(trifluoromethoxy)benzenesulfonamide]"
11,8.4 nM,"CCCNS(=O)(=O)c1ccc(-c2ccc(C#N)n2C)cc1OC(F)(F)F [Example 52, 4-(5-cyano-1-methyl-1H-pyrrol-2-yl)-N-propyl-2-(trifluoromethoxy)benzenesulfonamide]"
12,22.7 nM,"Cn1c(C#N)ccc1-c1ccc(S(=O)(=O)N2CCCC2)c(OC(F)(F)F)c1 [Example 53, 1-methyl-5-[4-(pyrrolidin-1-ylsulfonyl)-3-(trifluoromethoxy)phenyl]-1H-pyrrole-2-carbonitrile]"
13,71.7 nM,"Cn1c(C#N)ccc1-c1ccc(S(=O)(=O)NC2CC2)c(OC(F)(F)F)c1 [Example 54, 4-(5-cyano-1-methyl-1H-pyrrol-2-yl)-N-cyclopropyl-2-(trifluoromethoxy)benzenesulfonamide]"
14,12.3 nM,"Cn1c(C#N)ccc1-c1ccc(S(=O)(=O)NCC2CC2)c(OC(F)(F)F)c1 [Example 55, 4-(5-cyano-1-methyl-1H-pyrrol-2-yl)-N-(cyclopropylmethyl)-2-(trifluoromethoxy)benzenesulfonamide]"

# Same assay, conditions: T47D alkaline phosphatase assay; antagonist mode in the presence of 1 nM progesterone; 24 hours
row,SMILES,Active Dose
1,"Cn1c(C#N)ccc1-c1ccc(S(=O)(=O)NC2CC2)c(F)c1 [Example 43, 4-(5-cyano-1-methyl-1H-pyrrol-2-yl)-N-cyclopropyl-2-fluorobenzenesulfonamide]",30 nM
2,"Cn1c(C#N)ccc1-c1ccc(S(=O)(=O)NC2CCC2)c(OC(F)(F)F)c1 [Example 56, 4-(5-cyano-1-methyl-1H-pyrrol-2-yl)-N-cyclobutyl-2-(trifluoromethoxy)benzenesulfonamide]",30 nM
3,"Cn1c(C#N)ccc1-c1ccc(S(=O)(=O)NC(C)(C)C)c(OC(F)(F)F)c1 [Example 57, N-tert-butyl-4-(5-cyano-1-methyl-1H-pyrrol-2-yl)-2-(trifluoromethoxy)benzenesulfonamide]",30 nM
